Measured values as given in ChEMBL document CHEMBL1201862, “PubChem BioAssay data set” (2004).
Active and inactive are the calls of the source.

Key:
[1] = target: Sphingosine 1-phosphate receptor 2 (Homo sapiens, UniProt O95136); experiment: Dose Response Cell Based Assay for Agonists of the S1P2 Receptor of Purchased Analogues. [Related pubchem assays: 729, 843, 854, 736 ]; format: functional
Genome polyprotein = Genome polyprotein (Hepatitis C virus, UniProt Q2Q167); experiment: HCV core protein dimerization inhibitors, dose response, biochemical, TR-FRET (AID 2159); set-up: species or system Hepacivirus hominis;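 further: blocks dimerization of HCV core protein measured by TR-FRET between tagged core106 pairs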
[2] = target: Induced myeloid leukemia cell differentiation protein Mcl-1 (Homo sapiens, UniProt Q07820); experiment: MCL1-BIM BH3 interaction inhibitors, dose response, biochemical, fluorescence polarization, BIM-BH3 peptide, 1536-well (AID 2217)
Bcl-2-like protein 1 = Bcl-2-like protein 1 (Homo sapiens, UniProt Q07817); experiment: BCL-XL inhibitors, dose response, selectivity assay for MCL1 inhibitor project, biochemical, fluorescence polarization, 1536-well (AID 2218)
Galanin receptor type 2 = Galanin receptor type 2 (Homo sapiens, UniProt O43603); experiment: Dose Response cell-based high-throughput screening assay to identify antagonists of galanin receptor 2 (GALR2). [Related pubchem assays: 828, 866 ]; format: functional
INS1 = experiment: beta cell apoptosis inhibitors, cytokine rescue, dose response, luminescence, retest (AID 449756); format: functional, cell-based; settings: Rattus norvegicus;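 further: cell death triggered by IL-1 beta plus TNF-alpha plus IFN-gamma mixture; protective hits raise ATP signal compared with cytokine alone wells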
[3] = Shn3 3'UTR reporter inhibitors, dose response, cell-based, Clone20 osteoblasts, firefly luciferase, cherry-picked (AID 624132); format: functional;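 further: firefly luciferase luminescence from reporter carrying the Shn3 3'UTR in osteoblasts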
[4] = HepG2 cell cytotoxicity, dose response, cytotoxicity control for Shn3 inhibitor project, CellTiter-Glo, cherry-picked (AID 624134); format: functional, cell-based
[5] = control 3'UTR Renilla luciferase suppression, dose response, counter-screen for Shn3 inhibitor project, cell-based, Clone20-Shn3RL, cherry-picked (AID 624133); format: functional
[6] = target: T1, COUP transcription factor 2 (Homo sapiens, UniProt P24468); experiment: Luminescence-based cell-based high throughput dose response assay to identify inhibitors of COUP-TFII (NR2F2).; format: functional;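 further: HEK293 cells transiently cotransfected with COUP-TFII expression vector and reporter; luciferase reporter luminescence driven by COUP-TFII from the pX2-168 reporter plasmid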
T1 sequence (P24468 whole entry): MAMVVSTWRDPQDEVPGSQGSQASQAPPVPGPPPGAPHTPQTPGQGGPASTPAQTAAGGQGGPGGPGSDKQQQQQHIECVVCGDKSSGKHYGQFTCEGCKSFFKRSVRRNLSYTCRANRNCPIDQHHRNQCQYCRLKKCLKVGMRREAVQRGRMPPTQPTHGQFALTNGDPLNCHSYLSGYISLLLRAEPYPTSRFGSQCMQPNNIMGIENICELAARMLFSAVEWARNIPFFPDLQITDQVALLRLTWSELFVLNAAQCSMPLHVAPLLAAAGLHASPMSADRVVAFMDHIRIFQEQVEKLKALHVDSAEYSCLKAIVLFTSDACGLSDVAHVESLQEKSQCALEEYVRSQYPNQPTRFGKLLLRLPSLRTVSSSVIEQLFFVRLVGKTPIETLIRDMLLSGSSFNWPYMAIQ

[7] = insulin promoter down-regulators in MIN6 cells, imaging, high-content screening, mouse beta cells (AID 1628); format: functional
[8] = cytotoxicity in MIN6 insulinoma cells, dose response, cytotoxicity control, cell-based, mouse insulinoma (AID 2122); format: functional;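 further: confirmatory high-throughput counterscreen run to flag cytotoxic compounds; mouse MIN-6 beta cells carrying an insulin promoter eGFP reporter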
NADPH oxidase 1 [9] = target: T2, NADPH oxidase 1 (Homo sapiens, UniProt Q9Y5S8); format: functional, cell-based
T2 sequence (Q9Y5S8 whole entry): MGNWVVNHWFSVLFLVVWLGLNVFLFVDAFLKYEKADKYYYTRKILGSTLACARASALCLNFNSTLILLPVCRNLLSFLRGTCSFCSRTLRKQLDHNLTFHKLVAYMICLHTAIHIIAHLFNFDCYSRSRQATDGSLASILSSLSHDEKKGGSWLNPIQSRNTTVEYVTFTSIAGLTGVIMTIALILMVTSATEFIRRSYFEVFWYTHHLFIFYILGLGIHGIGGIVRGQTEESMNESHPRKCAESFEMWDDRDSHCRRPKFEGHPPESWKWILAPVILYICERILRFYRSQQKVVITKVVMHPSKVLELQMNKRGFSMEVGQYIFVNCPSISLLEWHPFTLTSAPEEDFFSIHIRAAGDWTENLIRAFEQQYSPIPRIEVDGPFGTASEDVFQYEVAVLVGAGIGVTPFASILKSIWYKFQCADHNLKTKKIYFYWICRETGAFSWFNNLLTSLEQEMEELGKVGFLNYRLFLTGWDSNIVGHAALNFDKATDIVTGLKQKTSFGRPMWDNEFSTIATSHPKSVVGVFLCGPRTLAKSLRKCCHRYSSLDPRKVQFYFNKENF

NADPH oxidase 1 [10] = target: T2, NADPH oxidase 1; experiment: Luminescence-based cell-based dose response assay to identify inhibitors of NADPH oxidase 1 (NOX1).; format: functional
[11] = target: T3, Rac GTPase-activating protein 1 (Homo sapiens, UniProt Q9H0H5); experiment: MgcRacGAP GTPase-activating activity inhibitors, confirmation, biochemical, ADP Hunter fluorescence, primary and confirmatory (AID 624330); format: functional
T3 sequence (Q9H0H5 whole entry): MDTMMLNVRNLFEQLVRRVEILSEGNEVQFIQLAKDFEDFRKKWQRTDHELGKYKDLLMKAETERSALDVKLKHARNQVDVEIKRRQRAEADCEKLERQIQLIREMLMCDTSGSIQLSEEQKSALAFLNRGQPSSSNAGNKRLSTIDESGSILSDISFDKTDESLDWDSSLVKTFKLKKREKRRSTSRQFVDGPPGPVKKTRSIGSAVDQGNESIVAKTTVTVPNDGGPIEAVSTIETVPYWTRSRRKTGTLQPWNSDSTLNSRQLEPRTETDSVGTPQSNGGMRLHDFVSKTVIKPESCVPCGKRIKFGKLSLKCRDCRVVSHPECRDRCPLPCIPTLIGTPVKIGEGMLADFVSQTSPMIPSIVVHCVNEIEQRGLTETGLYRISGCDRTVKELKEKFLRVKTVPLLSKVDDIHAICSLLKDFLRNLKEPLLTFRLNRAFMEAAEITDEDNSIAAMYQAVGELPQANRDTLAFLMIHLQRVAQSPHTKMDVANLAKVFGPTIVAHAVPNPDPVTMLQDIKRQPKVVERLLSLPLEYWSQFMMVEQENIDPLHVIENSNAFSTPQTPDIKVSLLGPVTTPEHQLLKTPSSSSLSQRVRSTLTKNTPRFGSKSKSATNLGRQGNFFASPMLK

[12] = NIH-3T3 fibroblast cytotoxicity, dose response, cytotoxicity control, cell-based, fluorescence, Alamar Blue, secondary assay (AID 2327); format: functional;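 further: NIH-3T3 mouse fibroblasts cultured with fluconazole at 8 µg/mL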
cells [13] = format: functional, cell-based
Vero = experiment: host cell cytotoxicity of antiviral hits, dose response, cytotoxicity control for West Nile virus antiviral project, secondary assay (AID 1650); format: functional; settings: Chlorocebus sabaeus
[14] = C. albicans growth with fluconazole, confirmation, fluorescence, retest (AID 2467); format: functional, cell-based
cells [15] = format: functional, cell-based; remark: listed apart in the source
[16] = THP-1 cell cytotoxicity, dose response, cytotoxicity control for non-replicating M. tuberculosis project (AID 489025); format: functional
[17] = HepG2 cell cytotoxicity, dose response, cytotoxicity control for non-replicating M. tuberculosis project (AID 489018); format: functional; settings: Mycobacterium tuberculosis
[18] = Vero E6 cell cytotoxicity, dose response, cytotoxicity control for non-replicating M. tuberculosis project, secondary assay (AID 492998); format: functional, VeroE6; settings: Vero C1008
cells [19] = format: functional
Aspartyl aminopeptidase = Aspartyl aminopeptidase (Plasmodium falciparum 3D7, UniProt Q8I2J3); experiment: Counterscreen for inhibitors of M1 and M17 aminopeptidases: QFRET-based biochemical high throughput dose response assay for inhibitors of the Plasmodium falciparum M18 Aspartyl Aminopeptidase (PFM18AAP). [Related PubChem assays: 1619 (Screening assay (M17LAP inhibitors).), 1445 (Screening assay (M1AAP inhibitors).)]
Aminopeptidase N = target: T4, Aminopeptidase N (Plasmodium falciparum FcB1/Columbia, UniProt O96935); experiment: P. falciparum M1AAP inhibitors, biochemical, fluorogenic H-Leu-NHMec substrate, 1536-well (AID 1445); set-up: species or system Plasmodium falciparum 3D7, 3D7
T4 sequence (O96935 whole entry): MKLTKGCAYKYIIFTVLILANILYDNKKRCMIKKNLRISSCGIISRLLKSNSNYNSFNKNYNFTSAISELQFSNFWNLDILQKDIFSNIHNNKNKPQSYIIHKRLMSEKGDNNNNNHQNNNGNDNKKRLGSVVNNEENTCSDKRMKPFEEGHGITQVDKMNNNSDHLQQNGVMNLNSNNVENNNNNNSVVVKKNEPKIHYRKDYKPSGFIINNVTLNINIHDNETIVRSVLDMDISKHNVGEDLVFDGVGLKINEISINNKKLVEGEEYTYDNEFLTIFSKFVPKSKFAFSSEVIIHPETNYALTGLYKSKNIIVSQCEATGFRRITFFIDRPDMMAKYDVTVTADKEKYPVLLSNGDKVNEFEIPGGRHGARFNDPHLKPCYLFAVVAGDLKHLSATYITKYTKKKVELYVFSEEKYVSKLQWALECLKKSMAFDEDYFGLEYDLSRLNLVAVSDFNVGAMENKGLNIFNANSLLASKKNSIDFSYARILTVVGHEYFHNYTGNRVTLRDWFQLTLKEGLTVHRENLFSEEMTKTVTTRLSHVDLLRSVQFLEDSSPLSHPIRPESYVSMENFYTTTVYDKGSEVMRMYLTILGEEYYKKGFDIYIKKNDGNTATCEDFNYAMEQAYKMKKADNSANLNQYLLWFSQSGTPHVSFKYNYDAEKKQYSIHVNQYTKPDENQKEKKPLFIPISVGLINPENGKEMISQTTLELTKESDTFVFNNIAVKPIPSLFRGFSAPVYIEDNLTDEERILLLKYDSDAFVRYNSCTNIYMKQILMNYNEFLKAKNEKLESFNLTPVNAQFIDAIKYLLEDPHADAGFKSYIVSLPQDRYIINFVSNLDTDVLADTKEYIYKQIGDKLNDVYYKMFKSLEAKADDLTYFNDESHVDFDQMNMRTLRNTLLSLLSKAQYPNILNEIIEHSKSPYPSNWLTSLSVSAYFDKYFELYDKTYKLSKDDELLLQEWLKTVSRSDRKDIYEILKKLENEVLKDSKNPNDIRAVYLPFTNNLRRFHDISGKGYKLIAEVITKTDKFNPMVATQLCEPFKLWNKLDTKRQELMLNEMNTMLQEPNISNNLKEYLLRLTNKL

[20] = target: T5, RNA-binding protein pos-1 (Caenorhabditis elegans, UniProt G5EF15); experiment: inhibitors of POS-1/mex-3 RNA binding, dose response, biochemical, fluorescence polarization (AID 1964);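 further: purified POS-1 fused to maltose binding protein made in E. coli; potency of compounds blocking POS-1 binding to fluorescent RNA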
T5 sequence (G5EF15 whole entry): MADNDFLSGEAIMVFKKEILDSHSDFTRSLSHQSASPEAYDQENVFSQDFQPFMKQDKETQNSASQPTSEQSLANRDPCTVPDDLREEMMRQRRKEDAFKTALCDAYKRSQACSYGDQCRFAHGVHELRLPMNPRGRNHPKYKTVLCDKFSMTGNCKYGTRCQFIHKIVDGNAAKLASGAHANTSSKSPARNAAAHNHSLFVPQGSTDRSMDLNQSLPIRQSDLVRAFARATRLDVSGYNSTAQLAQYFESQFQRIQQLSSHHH

[21] = target: T6, Zinc finger protein mex-5 (Caenorhabditis elegans, UniProt Q9XUB2); experiment: MEX-5/TCR-2 RNA interaction inhibitors, dose response, biochemical, C. elegans, fluorescence polarization (AID 1960)
T6 sequence (Q9XUB2 whole entry): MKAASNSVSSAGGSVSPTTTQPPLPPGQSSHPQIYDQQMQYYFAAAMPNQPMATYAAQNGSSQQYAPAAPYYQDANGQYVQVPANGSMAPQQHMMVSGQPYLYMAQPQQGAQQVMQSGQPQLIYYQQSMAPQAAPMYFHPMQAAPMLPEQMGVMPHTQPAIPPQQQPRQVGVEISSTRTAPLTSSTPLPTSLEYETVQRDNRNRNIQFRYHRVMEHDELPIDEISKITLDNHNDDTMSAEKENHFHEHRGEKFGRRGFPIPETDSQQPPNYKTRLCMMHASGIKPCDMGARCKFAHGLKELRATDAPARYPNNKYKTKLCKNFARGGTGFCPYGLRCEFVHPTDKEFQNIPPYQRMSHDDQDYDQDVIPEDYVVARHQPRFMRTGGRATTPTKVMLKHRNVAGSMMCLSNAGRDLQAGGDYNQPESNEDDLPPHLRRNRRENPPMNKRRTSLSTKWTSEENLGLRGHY

Procathepsin L = Procathepsin L (Homo sapiens, UniProt P07711); experiment: cathepsin L inhibitors, dose response, counter-screen for M1/M17 aminopeptidase inhibitor project, biochemical, QFRET, 1536-well (AID 2214)
Procathepsin L, sequence (P07711 whole entry): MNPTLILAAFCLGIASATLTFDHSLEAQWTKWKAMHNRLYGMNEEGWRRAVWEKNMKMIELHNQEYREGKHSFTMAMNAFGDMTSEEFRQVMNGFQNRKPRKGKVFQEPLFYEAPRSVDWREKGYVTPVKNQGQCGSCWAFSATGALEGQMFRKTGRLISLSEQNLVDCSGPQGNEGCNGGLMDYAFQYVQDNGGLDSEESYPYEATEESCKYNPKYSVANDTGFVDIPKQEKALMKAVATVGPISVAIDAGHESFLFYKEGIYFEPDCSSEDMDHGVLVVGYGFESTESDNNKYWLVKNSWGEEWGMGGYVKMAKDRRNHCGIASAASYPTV

Galanin receptor type 2, sequence (O43603 whole entry): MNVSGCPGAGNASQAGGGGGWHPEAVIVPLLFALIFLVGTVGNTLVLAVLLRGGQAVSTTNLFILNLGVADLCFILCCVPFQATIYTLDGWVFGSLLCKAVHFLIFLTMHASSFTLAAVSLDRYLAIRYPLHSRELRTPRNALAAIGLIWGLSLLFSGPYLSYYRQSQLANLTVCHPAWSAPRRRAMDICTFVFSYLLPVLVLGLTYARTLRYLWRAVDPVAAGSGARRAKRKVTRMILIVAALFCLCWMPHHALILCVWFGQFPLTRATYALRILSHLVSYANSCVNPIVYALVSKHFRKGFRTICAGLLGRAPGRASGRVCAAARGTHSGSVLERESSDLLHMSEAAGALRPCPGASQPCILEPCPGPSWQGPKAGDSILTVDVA
Genome polyprotein, sequence (Q2Q167 whole entry): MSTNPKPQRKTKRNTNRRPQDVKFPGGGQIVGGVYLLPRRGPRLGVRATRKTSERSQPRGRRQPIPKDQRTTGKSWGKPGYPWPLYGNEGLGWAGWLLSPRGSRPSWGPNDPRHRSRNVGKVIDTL
Induced myeloid leukemia cell differentiation protein Mcl-1, sequence (Q07820 whole entry): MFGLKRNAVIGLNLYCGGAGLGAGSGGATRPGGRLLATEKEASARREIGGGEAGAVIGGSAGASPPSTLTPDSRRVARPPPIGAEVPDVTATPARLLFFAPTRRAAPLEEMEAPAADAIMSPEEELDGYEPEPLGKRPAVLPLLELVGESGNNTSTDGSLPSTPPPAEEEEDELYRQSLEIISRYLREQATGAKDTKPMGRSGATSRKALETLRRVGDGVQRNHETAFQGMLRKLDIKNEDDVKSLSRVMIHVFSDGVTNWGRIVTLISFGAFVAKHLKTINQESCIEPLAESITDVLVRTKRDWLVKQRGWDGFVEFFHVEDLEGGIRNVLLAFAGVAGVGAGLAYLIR
Aspartyl aminopeptidase, sequence (Q8I2J3 whole entry): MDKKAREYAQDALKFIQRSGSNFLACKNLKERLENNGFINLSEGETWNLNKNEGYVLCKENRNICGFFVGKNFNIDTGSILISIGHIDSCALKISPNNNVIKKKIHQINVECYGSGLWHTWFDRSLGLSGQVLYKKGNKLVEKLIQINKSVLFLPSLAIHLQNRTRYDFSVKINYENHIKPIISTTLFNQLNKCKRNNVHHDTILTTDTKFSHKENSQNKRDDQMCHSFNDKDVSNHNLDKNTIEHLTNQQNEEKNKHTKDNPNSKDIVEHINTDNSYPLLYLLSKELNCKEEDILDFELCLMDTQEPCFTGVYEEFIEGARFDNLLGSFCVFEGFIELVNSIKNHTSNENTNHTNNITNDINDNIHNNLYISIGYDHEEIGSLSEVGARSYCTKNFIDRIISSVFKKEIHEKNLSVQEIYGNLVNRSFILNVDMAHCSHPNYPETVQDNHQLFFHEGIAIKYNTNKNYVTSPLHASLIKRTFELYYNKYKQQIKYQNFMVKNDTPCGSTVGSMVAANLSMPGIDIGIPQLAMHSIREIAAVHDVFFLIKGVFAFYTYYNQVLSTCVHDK
Bcl-2-like protein 1, sequence (Q07817 whole entry): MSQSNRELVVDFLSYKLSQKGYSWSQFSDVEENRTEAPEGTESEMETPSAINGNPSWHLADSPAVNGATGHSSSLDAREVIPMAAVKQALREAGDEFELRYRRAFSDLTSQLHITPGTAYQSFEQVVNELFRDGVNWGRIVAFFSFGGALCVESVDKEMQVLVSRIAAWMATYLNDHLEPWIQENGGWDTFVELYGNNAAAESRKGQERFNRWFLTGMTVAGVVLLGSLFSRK
Sphingosine 1-phosphate receptor 2, sequence (O95136 whole entry): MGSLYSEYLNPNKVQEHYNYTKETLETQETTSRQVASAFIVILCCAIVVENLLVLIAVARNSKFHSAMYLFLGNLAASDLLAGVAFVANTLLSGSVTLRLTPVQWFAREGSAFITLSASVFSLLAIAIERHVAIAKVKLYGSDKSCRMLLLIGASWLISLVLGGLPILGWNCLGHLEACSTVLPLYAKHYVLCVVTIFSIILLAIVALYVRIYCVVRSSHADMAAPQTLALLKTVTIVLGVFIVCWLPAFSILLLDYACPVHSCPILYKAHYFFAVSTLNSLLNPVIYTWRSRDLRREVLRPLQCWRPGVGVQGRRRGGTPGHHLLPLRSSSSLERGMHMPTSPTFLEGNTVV

## COc1ccc(NC(=O)CN(C)CC(=O)c2cc(C)n(Cc3ccccc3)c2C)cc1
[1]
  EC50: > 30 µM (not active)

## COc1ccc(NC(=O)CN(C)C(=O)c2cc3c(s2)CCC3)cc1
Genome polyprotein
  IC50: 42.6 µM (not active)
[2]
  IC50: 7.31 µM (active)
Bcl-2-like protein 1
  IC50: > 109 µM (not active)

## CC(=O)c1c(C)[nH]c(C(=O)OCC(=O)Nc2ccc(Cl)cc2[N+](=O)[O-])c1C
Galanin receptor type 2
  IC50: > 42 µM (not active)
INS1
  AC50: 1.98 µM (active)
[3]
  AC50: 0.325 µM (active)
[4]
  AC50: 53.2 µM (active)
[5]
  AC50: 13.6 µM (active)
[6]
  IC50: 6.5 µM (active)

## COc1ccc2c(c1)Sc1ccccc1N2
[7]
  IC50: 2.01 µM (active)
[8]
  IC50: 1.63 µM (active)
NADPH oxidase 1 [9]
  IC50: 0.935 µM (active)
NADPH oxidase 1 [10]
  IC50: > 20 µM (not active)
[11]
  IC50: 28.8 µM (active)

## O=C(N/N=C(\c1ccccc1)c1ccccn1)c1cccc([N+](=O)[O-])c1
[12]
  EC50: 155 µM (inconclusive)
Cells [13]
  EC50: 4.64 µM (active)
Vero
  CC50: 1.73 µM (active)
[14]
  EC50: 3.75 µM (active)
Cells [15]
  EC50: > 350 µM (not active)
[16]
  CC50: 0.394 µM (active)
[17]
  CC50: 6.88 µM (active)
[18]
  CC50: 1.61 µM (active)
Cells [19]
  IC50: 1.06 µM (active)
INS1
  AC50: 0.535 µM (active)

## O=C(NCc1cccs1)C1CCN(S(=O)(=O)c2ccc(Br)s2)CC1
Aspartyl aminopeptidase
  IC50: > 73.5 µM (not active)
Aminopeptidase N
  IC50: 4.67 µM (active)
[20]
  EC50: > 300 µM (not active)
[21]
  EC50: > 300 µM (not active)
Procathepsin L
  IC50: > 59.6 µM (not active)
